Data taken from ChEMBL document CHEMBL4396913, “Synthesis and biological evaluation of hybrid quinolone-based quaternary ammonium antibacterial agents” (Eur J Med Chem, 2019).
≈ marks a conversion by molar mass, not a printed value.

Columns and labels:
[1] = Lipophilicity, log k of the compound at 100 ug/ml by micellar electrokinetic chromatography; type: physicochemical
Staphylococcus aureus [2] = experiment: Antibacterial activity against Staphylococcus aureus ATCC 6538 cultured in MH medium assessed as reduction in bacterial growth incubated for 48 hrs by microbroth dilution method; type: functional; settings: ATCC 6538, 48 h
Staphylococcus aureus [3] = experiment: Bactericidal activity against Staphylococcus aureus ATCC 6538 cultured in MH medium assessed as reduction in bacterial survival incubated for 48 hrs by microbroth dilution method; type: functional; settings: ATCC 6538, 48 h
Staphylococcus aureus [4] = experiment: Antibacterial activity against methicillin resistant Staphylococcus aureus N315 cultured in MH medium assessed as reduction in bacterial growth incubated for 48 hrs by microbroth dilution method; type: functional; settings: N315, 48 h
Staphylococcus aureus [5] = experiment: Bactericidal activity against methicillin resistant Staphylococcus aureus N315 cultured in MH medium assessed as reduction in bacterial survival incubated for 48 hrs by microbroth dilution method; type: functional; settings: N315, 48 h
[6] = system: Staphylococcus epidermidis; experiment: Antibacterial activity against Staphylococcus epidermidis ATCC 14990 cultured in MH medium assessed as reduction in bacterial growth incubated for 48 hrs by microbroth dilution method; type: functional; settings: ATCC 14990, 48 h
[7] = system: Staphylococcus epidermidis; experiment: Bactericidal activity against Staphylococcus epidermidis ATCC 14990 cultured in MH medium assessed as reduction in bacterial survival incubated for 48 hrs by microbroth dilution method; type: functional; settings: ATCC 14990, 48 h
Enterococcus hirae [8] = experiment: Antibacterial activity against Enterococcus hirae ATCC 1052 cultured in BHI medium assessed as reduction in bacterial growth incubated for 48 hrs by microbroth dilution method; type: functional; settings: ATCC 1052, 48 h
Bacillus spizizenii [9] = experiment: Antibacterial activity against Bacillus subtilis ATCC 6633 cultured in MH medium assessed as reduction in bacterial growth incubated for 48 hrs by microbroth dilution method; type: functional; settings: ATCC 6633, 48 h
Bacillus spizizenii [10] = experiment: Bactericidal activity against Bacillus subtilis ATCC 6633 cultured in MH medium assessed as reduction in bacterial survival incubated for 48 hrs by microbroth dilution method; type: functional; settings: ATCC 6633, 48 h
Escherichia coli [11] = experiment: Antibacterial activity against Escherichia coli ATCC 8739 cultured in MH medium assessed as reduction in bacterial growth incubated for 48 hrs by microbroth dilution method; type: functional; settings: ATCC 8739, 48 h
Escherichia coli [12] = experiment: Bactericidal activity against Escherichia coli ATCC 8739 cultured in MH medium assessed as reduction in bacterial survival incubated for 48 hrs by microbroth dilution method; type: functional; settings: ATCC 8739, 48 h
Pseudomonas aeruginosa [13] = experiment: Antibacterial activity against Pseudomonas aeruginosa ATCC 9027 cultured in MH medium assessed as reduction in bacterial growth incubated for 48 hrs by microbroth dilution method; type: functional; settings: ATCC 9027, 48 h
Pseudomonas aeruginosa [14] = experiment: Bactericidal activity against Pseudomonas aeruginosa ATCC 9027 cultured in MH medium assessed as reduction in bacterial survival incubated for 48 hrs by microbroth dilution method; type: functional; settings: ATCC 9027, 48 h
Proteus vulgaris [15] = experiment: Antibacterial activity against Proteus vulgaris NCTC 4635 cultured in MH medium assessed as reduction in bacterial growth incubated for 48 hrs by microbroth dilution method; type: functional; settings: NCTC 4635, 48 h
Proteus vulgaris [16] = experiment: Bactericidal activity against Proteus vulgaris NCTC 4635 cultured in MH medium assessed as reduction in bacterial survival incubated for 48 hrs by microbroth dilution method; type: functional; settings: NCTC 4635, 48 h
Staphylococcus aureus [17] = experiment: Antibacterial activity against methicillin resistant Staphylococcus aureus 6347 cultured in MH medium assessed as reduction in bacterial growth incubated for 48 hrs by microbroth dilution method; type: functional; settings: Staphylococcus aureus, 6347, 48 h
Staphylococcus aureus [18] = experiment: Bactericidal activity against methicillin resistant Staphylococcus aureus 6347 cultured in MH medium assessed as reduction in bacterial survival incubated for 48 hrs by microbroth dilution method; type: functional; settings: Staphylococcus aureus, 6347, 48 h
[19] = system: Staphylococcus epidermidis; experiment: Antibacterial activity against methicillin resistant Staphylococcus epidermidis ATCC 13199 cultured in MH medium assessed as reduction in bacterial growth incubated for 48 hrs by microbroth dilution method; type: functional; settings: ATCC 13199, 48 h
[20] = system: Staphylococcus epidermidis; experiment: Bactericidal activity against methicillin resistant Staphylococcus epidermidis ATCC 13199 cultured in MH medium assessed as reduction in bacterial survival incubated for 48 hrs by microbroth dilution method; type: functional; settings: ATCC 13199, 48 h
Streptococcus pneumoniae [21] = experiment: Antibacterial activity against Streptococcus pneumoniae cultured in MH medium assessed as reduction in bacterial growth incubated for 48 hrs by microbroth dilution method; type: functional
Serratia marcescens [22] = experiment: Antibacterial activity against Serratia marcescens ATCC 12795 cultured in MH medium assessed as reduction in bacterial growth incubated for 48 hrs by microbroth dilution method; type: functional; settings: ATCC 12795, 48 h
Serratia marcescens [23] = experiment: Bactericidal activity against Serratia marcescens ATCC 12795 cultured in MH medium assessed as reduction in bacterial survival incubated for 48 hrs by microbroth dilution method; type: functional; settings: ATCC 12795, 48 h
[24] = molecular target: T1, DNA gyrase (Escherichia coli) (UniProt P0AES6+P0AES4); experiment: Inhibition of Escherichia coli DNA gyrase super-coiling activity using relaxed pNO1 DNA as substrate assessed as enzyme residual activity at 10 uM incubated for 30 mins by fluorescence assay relative to control; type: protein-complex assay
[25] = molecular target: T1, DNA gyrase (Escherichia coli); experiment: Inhibition of Escherichia coli DNA gyrase super-coiling activity using relaxed pNO1 DNA as substrate assessed as enzyme residual activity at 1 uM incubated for 30 mins by fluorescence assay relative to control; type: protein-complex assay
HEK293 [26] = experiment: Cytotoxicity against human HEK293 cells assessed as cell viability upto 20 uM incubated for 72 hrs by MTT assay; type: cell-based; settings: hek293, 72 h
HEK293 [27] = experiment: Cytotoxicity against human HEK293 cells assessed as changes in cell morphology upto 20 uM incubated for 72 hrs by MTT assay; type: cell-based; settings: hek293, 72 h
Streptococcus pneumoniae [28] = experiment: Bactericidal activity against Streptococcus pneumoniae cultured in MH medium assessed as reduction in bacterial survival incubated for 48 hrs by microbroth dilution method; type: functional
Escherichia coli [29] = experiment: Antibacterial activity against […] Escherichia coli ATCC 8739 assessed as reduction in bacterial growth incubated for 48 hrs in presence of 50 ug/ml […], PAbetaN by microbroth dilution method; type: functional; settings: ATCC 8739, 48 h
Escherichia coli [30] = experiment: Bactericidal activity against […] Escherichia coli ATCC 8739 assessed as reduction in bacterial survival incubated for 48 hrs in presence of 50 ug/ml […], PAbetaN by microbroth dilution method; type: functional; settings: ATCC 8739, 48 h
Enterococcus hirae [31] = experiment: Bactericidal activity against Enterococcus hirae ATCC 1052 cultured in BHI medium assessed as reduction in bacterial survival incubated for 48 hrs by microbroth dilution method; type: functional; settings: ATCC 1052, 48 h
Pseudomonas aeruginosa [32] = experiment: Antibiofilm activity against Pseudomonas aeruginosa ATCC 9027 assessed as biofilm formation at antibacterial MIC incubated for 24 hrs compound added prior to bacterial biofilm formation by total biomass crystal violet staining-based method relative to control; type: functional
Staphylococcus aureus [33] = experiment: Antibiofilm activity against Staphylococcus aureus ATCC 6538 assessed as biofilm formation at antibacterial MIC incubated for 24 hrs compound added prior to bacterial biofilm formation by total biomass crystal violet staining-based method relative to control; type: functional
Pseudomonas aeruginosa [34] = experiment: Antibiofilm activity against Pseudomonas aeruginosa ATCC 9027 assessed as biofilm formation at 0.5 times antibacterial MIC incubated for 24 hrs compound added prior to bacterial biofilm formation by total biomass crystal violet staining-based method relative to control; type: functional
Staphylococcus aureus [35] = experiment: Antibiofilm activity against Staphylococcus aureus ATCC 6538 assessed as biofilm formation at 0.5 times antibacterial MIC incubated for 24 hrs compound added prior to bacterial biofilm formation by total biomass crystal violet staining-based method relative to control; type: functional
Pseudomonas aeruginosa [36] = experiment: Biofilm degradation activity against Pseudomonas aeruginosa ATCC 9027 assessed as biofilm formation at antibacterial MIC incubated for 24 hrs compound added post-biofilm formation by total biomass crystal violet staining-based method; type: functional
Pseudomonas aeruginosa [37] = experiment: Biofilm degradation activity against Pseudomonas aeruginosa ATCC 9027 assessed as biofilm formation at 2 times antibacterial MIC incubated for 24 hrs compound added post-biofilm formation by total biomass crystal violet staining-based method; type: functional
Pseudomonas aeruginosa [38] = experiment: Biofilm degradation activity against Pseudomonas aeruginosa ATCC 9027 assessed as biofilm formation at 4 times antibacterial MIC incubated for 24 hrs compound added post-biofilm formation by total biomass crystal violet staining-based method; type: functional
Staphylococcus aureus [39] = experiment: Biofilm degradation activity against Staphylococcus aureus ATCC 6538 assessed as biofilm formation at antibacterial MIC incubated for 24 hrs compound added post-biofilm formation by total biomass crystal violet staining-based method; type: functional
Staphylococcus aureus [40] = experiment: Biofilm degradation activity against Staphylococcus aureus ATCC 6538 assessed as biofilm formation at 2 times antibacterial MIC incubated for 24 hrs compound added post-biofilm formation by total biomass crystal violet staining-based method; type: functional
Staphylococcus aureus [41] = experiment: Biofilm degradation activity against Staphylococcus aureus ATCC 6538 assessed as biofilm formation at 4 times antibacterial MIC incubated for 24 hrs compound added post-biofilm formation by total biomass crystal violet staining-based method; type: functional

| SMILES | log K [1] | MIC (Staphylococcus aureus [2]) [µg/mL] | MBC (Staphylococcus aureus [3]) [µg/mL] | MIC (Staphylococcus aureus [4]) [µg/mL] | MBC (Staphylococcus aureus [5]) [µg/mL] | MIC [6] [µg/mL] | MBC [7] [µg/mL] | MIC (Enterococcus hirae [8]) [µg/mL] | MIC (Bacillus spizizenii [9]) [µg/mL] | MBC (Bacillus spizizenii [10]) [µg/mL] | MIC (Escherichia coli [11]) [µg/mL] | MBC (Escherichia coli [12]) [µg/mL] | MIC (Pseudomonas aeruginosa [13]) [µg/mL] | MBC (Pseudomonas aeruginosa [14]) [µg/mL] | MIC (Proteus vulgaris [15]) [µg/mL] | MBC (Proteus vulgaris [16]) [µg/mL] | MIC (Staphylococcus aureus [17]) [µg/mL] | MBC (Staphylococcus aureus [18]) [µg/mL] | MIC [19] [µg/mL] | MBC [20] [µg/mL] | other results |
| --- | --- | --- | --- | --- | --- | --- | --- | --- | --- | --- | --- | --- | --- | --- | --- | --- | --- | --- | --- | --- | --- |
| C[C@@H]1CN(c2c(F)c(N)c3c(=O)c(C(=O)O)cn(C4CC4)c3c2F)C[C@H](C)[N+]12CN1C(=N2)C(C(=O)O)=Cc2ccccc21.[Cl-] (stereo not given in full) | -0.07 | 8 | 8 | 32 | 128 | 8 | 8 | > 512 | 4 | 4 | 4 | 4 | 64 | 64 | 2 | 2 | 32 | 32 | 16 | 32 | MIC (Streptococcus pneumoniae [21]): > 512 µg/mL; MIC (Serratia marcescens [22]): 64 µg/mL; MBC (Serratia marcescens [23]): 64 µg/mL; Activity [24]: 35%; Activity [25]: 73%; Activity (HEK293 [26]): Non-Toxic; Activity (HEK293 [27]): Non-Toxic |
| COc1c(N2CC[N+]3(CN4C(=N3)C(C(=O)O)=Cc3ccccc34)C(C)C2)c(F)cc2c(=O)c(C(=O)O)cn(C3CC3)c12.[Cl-] (stereo not given) | -0.1255 | 16 | 16 | 32 | 32 | 32 | 32 | > 512 | 32 | 32 | 0.25 | 0.5 | 128 | 128 | 4 | 4 | 16 | 16 | 4 | 8 | MIC (Streptococcus pneumoniae [21]): 128 µg/mL; MBC (Streptococcus pneumoniae [28]): 256 µg/mL; MIC (Serratia marcescens [22]): 64 µg/mL; MBC (Serratia marcescens [23]): 64 µg/mL; MIC (Escherichia coli [29]): 0.125 µg/mL; MBC (Escherichia coli [30]): 0.5 µg/mL; Activity (HEK293 [26]): Non-Toxic; Activity (HEK293 [27]): Non-Toxic |
| CCn1cc(C(=O)O)c(=O)c2cc(F)c(N3CCNCC3)nc21 [ENOXACIN] | 0.1564 | 1 (≈ 3.12 µM) | 1 (≈ 3.12 µM) | 1 (≈ 3.12 µM) | 1 (≈ 3.12 µM) | 0.5 (≈ 1.56 µM) | 2 (≈ 6.24 µM) | 64 (≈ 200 µM) | 0.125 (≈ 0.39 µM) | 0.125 (≈ 0.39 µM) | 0.25 (≈ 0.78 µM) | 0.5 (≈ 1.56 µM) | 0.5 (≈ 1.56 µM) | 0.5 (≈ 1.56 µM) | 0.032 (≈ 0.0999 µM) | 0.063 (≈ 0.197 µM) | 0.5 (≈ 1.56 µM) | 1 (≈ 3.12 µM) | 0.25 (≈ 0.78 µM) | 0.25 (≈ 0.78 µM) | MBC (Enterococcus hirae [31]): 64 µg/mL (≈ 200 µM); MIC (Streptococcus pneumoniae [21]): 32 µg/mL (≈ 99.9 µM); MBC (Streptococcus pneumoniae [28]): > 512 µg/mL; MIC (Serratia marcescens [22]): 0.25 µg/mL (≈ 0.78 µM); MBC (Serratia marcescens [23]): 0.25 µg/mL (≈ 0.78 µM); Activity (Pseudomonas aeruginosa [32]): 7%; Activity (Staphylococcus aureus [33]): 29%; Activity (Pseudomonas aeruginosa [34]): 27%; Activity (Staphylococcus aureus [35]): 27%; Activity (Pseudomonas aeruginosa [36]): 46%; Activity (Pseudomonas aeruginosa [37]): 49%; Activity (Pseudomonas aeruginosa [38]): 49%; Activity (Staphylococcus aureus [39]): 45%; Activity (Staphylococcus aureus [40]): 28%; Activity (Staphylococcus aureus [41]): 8% |
